Laboratory results published in patent US6737383B1, “Herbicidal oxadiazolidines” (priority 1999, dated 2004).

Tests used:
[1] = tested on: cocklebur; experiment: Test B pre/postemergence cocklebur; assay type: in vivo, Xanthium strumarium
Procedure, shortened: (§1)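 Herbicidal effect was estimated by eye on a ten-point control scale after plants spent twelve to sixteen days in a greenhouse following soil or foliar treatment. Foliar sprays targeted plants at one to four leaves; all doses were formulated in a non-phytotoxic solvent with surfactant.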

[2] = tested on: rape; experiment: Test B pre/postemergence rape; assay type: in vivo, Brassica napus
Procedure, shortened: as §1

[3] = tested on: morningglory; experiment: Test B pre/postemergence morningglory; assay type: in vivo, Ipomoea hederacea
Procedure, shortened: as §1

[4] = tested on: surinam grass; experiment: Test B pre/postemergence surinam grass; assay type: in vivo, Brachiaria decumbens
Procedure, shortened: as §1

[5] = tested on: purple nutsedge; experiment: Test B pre/postemergence purple nutsedge; assay type: in vivo, Cyperus rotundus
Procedure, shortened: as §1

[6] = tested on: soybean; experiment: Test B pre/postemergence soybean; assay type: in vivo, Glycine max
Procedure, shortened: as §1

[7] = tested on: pigweed; experiment: Test B pre/postemergence pigweed; assay type: in vivo, Amaranthus retroflexus
Procedure, shortened: as §1

[8] = tested on: crabgrass; experiment: Test B pre/postemergence crabgrass; assay type: in vivo, Digitaria sanguinalis
Procedure, shortened: as §1

[9] = tested on: corn; experiment: Test B pre/postemergence corn; assay type: in vivo, Zea mays
Procedure, shortened: as §1

[10] = tested on: wheat; experiment: Test B pre/postemergence wheat; assay type: in vivo, Triticum aestivum
Procedure, shortened: as §1

[11] = tested on: wild oat; experiment: Test B pre/postemergence wild oat; assay type: in vivo, Avena fatua
Procedure, shortened: as §1

[12] = tested on: bedstraw; experiment: Test B pre/postemergence bedstraw; assay type: in vivo, Galium aparine
Procedure, shortened: as §1

[13] = tested on: bamyardgrass; experiment: Test B flood test barnyardgrass; assay type: in vivo, Echinochloa crus-galli
Procedure, shortened: (§2)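 Plants were grown to the 2-leaf stage before treatment with test chemical, then held in a greenhouse for twelve to sixteen days. Injury was visually rated against untreated controls on a 0–10 scale, where 0 is no effect and 10 is complete control.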

[14] = tested on: giant foxtail; experiment: Test B pre/postemergence giant foxtail; assay type: in vivo, Setaria faberii
Procedure, shortened: as §1

[15] = tested on: blackgrass; experiment: Test B pre/postemergence blackgrass; assay type: in vivo, Alopecurus myosuroides
Procedure, shortened: as §1

[16] = tested on: velvetleaf; experiment: Test B pre/postemergence velvetleaf; assay type: in vivo, Abutilon theophrasti
Procedure, shortened: as §1

[17] = tested on: smallflower flatsedge; experiment: Test B flood test smallflower flatsedge; assay type: in vivo, Cyperus difformis
Procedure, shortened: as §2

[18] = tested on: duck salad; experiment: Test B flood test duck salad; assay type: in vivo, Heteranthera limosa
Procedure, shortened: as §2

[19] = tested on: sugar beet; experiment: Test B pre/postemergence sugar beet; assay type: in vivo, Beta vulgaris
Procedure, shortened: as §1

[20] = tested on: rice; experiment: Test B flood test rice; assay type: in vivo, Oryza sativa
Procedure, shortened: as §2

[21] = Preemergence, Rate 62 g/ha, scale of 0 to 10 where 0 is no effect and 10 is complete control
[22] = Rate 31 g/ha, Postemergence, scale 0 to 10
[23] = Rate 62 g/ha, Postemergence, scale of 0 to 10 where 0 is no effect and 10 is complete control
[24] = Rate 125 g/ha, Postemergence, scale 0 to 10
[25] = Rate 125 g/ha, Preemergence, scale of 0 to 10 where 0 is no effect and 10 is complete control
[26] = Preemergence, Rate 31 g/ha, visual rating, scale 0 to 10 (0 no effect, 10 complete control)
[27] = Preemergence, Rate 250 g/ha, scale of 0 to 10 where 0 is no effect and 10 is complete control
[28] = Rate 62 g/ha, headed Pre-emergence (flood test species), scale 0 to 10 (0 no effect, 10 complete control)
[29] = Rate 250 g/ha, Pre-emergence, flood-test species, scale 0 to 10, 0 is no effect, 10 is complete control

CC(C)N(C(=O)n1oc(=O)n(CC#C[Si](C)(C)C)c1=O)c1ccc(F)cc1 [Compound 213]
1: Soybean plant response rating [6, 23] | Soybean plant response rating [6, 24]
6: Morningglory plant response rating [3, 23] | Morningglory plant response rating [3, 24]
4: Redroot pigweed plant response rating [7, 25] | Giant foxtail plant response rating [14, 27] | Plant response rating (0 to 10; 0 is no effect, 10 is complete control), Sugarbeets ([19]; Rate 250 g/ha, Postemergence)
5: Morningglory plant response rating [3, 22] | Redroot pigweed plant response rating [7, 27] | Redroot pigweed plant response rating [7, 23]
2: Rape plant response rating [2, 24] | Plant response rating (0 to 10; 0 is no effect, 10 is complete control), B. signalgrass ([4]; Rate 250 g/ha, Postemergence) | Plant response rating (0 to 10; 0 is no effect, 10 is complete control), Soybean ([6]; Rate 250 g/ha, Postemergence) | Plant response rating (0 to 10; 0 is no effect, 10 is complete control), Crabgrass ([8]; Rate 250 g/ha, Postemergence) | Plant response rating (0 to 10; 0 is no effect, 10 is complete control), Wheat ([10]; Rate 250 g/ha, Postemergence) | Plant response rating (0 to 10; 0 is no effect, 10 is complete control), Wild oats ([11]; Rate 250 g/ha, Postemergence) | Giant foxtail plant response rating [14, 25] | Plant response rating (0 to 10; 0 is no effect, 10 is complete control), Giant foxtail ([14]; Rate 250 g/ha, Postemergence) | Plant response rating (0 to 10; 0 is no effect, 10 is complete control), Blackgrass ([15]; Rate 250 g/ha, Postemergence)
7: Plant response rating (0 to 10; 0 is no effect, 10 is complete control), Morningglory ([3]; Rate 250 g/ha, Postemergence) | Redroot pigweed plant response rating [7, 24] | Plant response rating (0 to 10; 0 is no effect, 10 is complete control), Redroot pigweed ([7]; Rate 250 g/ha, Postemergence)
3: Plant response rating (0 to 10; 0 is no effect, 10 is complete control), Rape ([2]; Rate 250 g/ha, Postemergence) | Morningglory plant response rating [3, 27] | Crabgrass plant response rating [8, 27] | Bedstraw plant response rating [12, 24] | Plant response rating (0 to 10; 0 is no effect, 10 is complete control), Bedstraw ([12]; Rate 250 g/ha, Postemergence) | Sugarbeets plant response rating [19, 23] | Sugarbeets plant response rating [19, 24]
0: Cocklebur plant response rating [1, 21] | Cocklebur plant response rating [1, 22] | Cocklebur plant response rating [1, 23] | Cocklebur plant response rating [1, 24] | Cocklebur plant response rating [1, 25] | Plant response rating (0 to 10; 0 is no effect, 10 is complete control), Cocklebur ([1]; Rate 250 g/ha, Postemergence) | Rape plant response rating [2, 26] | Rape plant response rating [2, 21] | Rape plant response rating [2, 27] | Rape plant response rating [2, 22] | Rape plant response rating [2, 23] | Rape plant response rating [2, 25] | Morningglory plant response rating [3, 26] | Morningglory plant response rating [3, 21] | Morningglory plant response rating [3, 25] | B. signalgrass plant response rating [4, 26] | B. signalgrass plant response rating [4, 21] | B. signalgrass plant response rating ([4]; Preemergence, Rate 250 g/ha, scale 0 to 10, 0 is no effect, 10 is complete control) | B. signalgrass plant response rating [4, 22] | B. signalgrass plant response rating [4, 23] | B. signalgrass plant response rating ([4]; Rate 125 g/ha, Postemergence, scale 0 (no effect) to 10 (complete control)) | B. signalgrass plant response rating [4, 25] | Nutsedge plant response rating [5, 21] | Nutsedge plant response rating [5, 22] | Nutsedge plant response rating [5, 23] | Nutsedge plant response rating [5, 24] | Nutsedge plant response rating [5, 25] | Plant response rating (0 to 10; 0 is no effect, 10 is complete control), Nutsedge ([5]; Rate 250 g/ha, Postemergence) | Soybean plant response rating [6, 26] | Soybean plant response rating [6, 21] | Soybean plant response rating [6, 27] | Soybean plant response rating [6, 25] | Redroot pigweed plant response rating [7, 26] | Redroot pigweed plant response rating [7, 21] | Redroot pigweed plant response rating [7, 22] | Crabgrass plant response rating [8, 26] | Crabgrass plant response rating [8, 21] | Crabgrass plant response rating [8, 22] | Crabgrass plant response rating [8, 23] | Crabgrass plant response rating [8, 24] | Crabgrass plant response rating [8, 25] | Corn plant response rating [9, 26] | Corn plant response rating [9, 21] | Corn plant response rating [9, 27] | Corn plant response rating [9, 22] | Corn plant response rating [9, 23] | Corn plant response rating [9, 24] | Corn plant response rating [9, 25] | Plant response rating (0 to 10; 0 is no effect, 10 is complete control), Corn ([9]; Rate 250 g/ha, Postemergence) | Wheat plant response rating [10, 26] | Wheat plant response rating [10, 21] | Wheat plant response rating [10, 27] | Wheat plant response rating [10, 23] | Wheat plant response rating [10, 24] | Wheat plant response rating [10, 25] | Wild oats plant response rating [11, 26] | Wild oats plant response rating [11, 21] | Wild oats plant response rating [11, 27] | Wild oats plant response rating [11, 23] | Wild oats plant response rating [11, 24] | Wild oats plant response rating [11, 25] | Bedstraw plant response rating [12, 26] | Bedstraw plant response rating [12, 21] | Bedstraw plant response rating [12, 27] | Bedstraw plant response rating [12, 22] | Bedstraw plant response rating [12, 23] | Bedstraw plant response rating [12, 25] | Barnyardgrass plant response rating [13, 28] | Barnyardgrass plant response rating [13, 29] | Giant foxtail plant response rating [14, 26] | Giant foxtail plant response rating [14, 21] | Giant foxtail plant response rating [14, 22] | Giant foxtail plant response rating [14, 23] | Giant foxtail plant response rating [14, 24] | Blackgrass plant response rating [15, 26] | Blackgrass plant response rating [15, 21] | Blackgrass plant response rating [15, 27] | Blackgrass plant response rating [15, 22] | Blackgrass plant response rating [15, 23] | Blackgrass plant response rating [15, 24] | Blackgrass plant response rating [15, 25] | Velvetleaf plant response rating [16, 26] | Velvetleaf plant response rating [16, 21] | Velvetleaf plant response rating [16, 27] | Velvetleaf plant response rating [16, 23] | Velvetleaf plant response rating [16, 24] | Velvetleaf plant response rating [16, 25] | Plant response rating (0 to 10; 0 is no effect, 10 is complete control), Velvetleaf ([16]; Rate 250 g/ha, Postemergence) | S. Flatsedge plant response rating [17, 28] | S. Flatsedge plant response rating [17, 29] | Ducksalad plant response rating [18, 28] | Ducksalad plant response rating [18, 29] | Sugarbeets plant response rating [19, 26] | Sugarbeets plant response rating [19, 21] | Sugarbeets plant response rating [19, 27] | Sugarbeets plant response rating [19, 25] | Rice plant response rating [20, 28] | Rice plant response rating [20, 29]
